Read-outs that look alike come from different tables or passages of the source.
Columns and labels:
[1] = test system: Key Grass and Sedge Weeds as well as Grass Crops; test: Post-Emergent Test II: postemergent herbicidal activity, visual rating after 14 d (Table 8); type: in vivo; conditions: post-emergence, 336 h; for pest or weed control at 35 g/ha: 35 g ai/ha; for pest or weed control at 70 g/ha: 70 g ai/ha; for pest or weed control at 140 g/ha: 140 g ai/ha
How it was run: (§1)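 Greenhouse-grown plants at the first or second true leaf stage (7-21 d, ~15 h photoperiod, 23-29° C day) were sprayed with compound in acetone/DMSO-based aqueous spray containing crop oil concentrate and Triton X-155 at 187 L/ha. Injury versus untreated plants was rated visually after 14 d on a 0-100 scale.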

[2] = test system: Key Broadleaf Weed and Crop Species; test: Post-Emergent Test II: postemergent herbicidal activity, visual rating after 14 d (Table 7); type: in vivo; conditions: post-emergence, 336 h; for pest or weed control at 35 g/ha: 35 g ai/ha; for pest or weed control at 70 g/ha: 70 g ai/ha; for pest or weed control at 140 g/ha: 140 g ai/ha
How it was run: as §1

[3] = barnyardgrass (Echinochloa crus-galli), read-out: Visual Growth Reduction (%) 14 Days After Application ECHCG
[4] = giant foxtail (Setaria faberi), read-out: Visual Growth Reduction (%) 14 Days After Application SETFA
[5] = maize, corn (Zea mays), read-out: Visual Growth Reduction (%) 14 Days After Application ZEAMX
[6] = rice (Oryza sativa), read-out: Visual Growth Reduction (%) 14 Days After Application ORYSA
[7] = wheat, spring (Triticum aestivum), read-out: Visual Growth Reduction (%) 14 Days After Application TRZAS
[8] = yellow nutsedge (Cyperus esculentus), read-out: Visual Growth Reduction (%) 14 Days After Application CYPES
[9] = lambsquarters (Chenopodium album), read-out: Visual Growth Reduction (%) 14 Days After Application CHEAL
[10] = oilseed rape, canola (Brassica napus), read-out: Visual Growth Reduction (%) 14 Days After Application BRSNN
[11] = redroot pigweed (Amaranthus retroflexus), read-out: Visual Growth Reduction (%) 14 Days After Application AMARE
[12] = sunflower (Helianthus annuus), read-out: Visual Growth Reduction (%) 14 Days After Application HELAN
[13] = velvetleaf (Abutilon theophrasti), read-out: Visual Growth Reduction (%) 14 Days After Application ABUTH
[14] = wild poinsettia (Euphorbia heterophylla), read-out: Visual Growth Reduction (%) 14 Days After Application EPHHL

## COC(=O)c1nc(-c2ccc3c(c2)OC(F)(F)O3)c(C)c(N)c1Cl [Compound 49]
[1]; [3]
  pest or weed control at 35 g/ha: 0 to 29%
  pest or weed control at 70 g/ha: 0 to 29%
  pest or weed control at 140 g/ha: 0 to 29%
[1]; [4]
  pest or weed control at 35 g/ha: 0 to 29%
  pest or weed control at 70 g/ha: 0 to 29%
  pest or weed control at 140 g/ha: 0 to 29%
[1]; [5]
  pest or weed control at 35 g/ha: 30 to 44%
  pest or weed control at 70 g/ha: 60 to 74%
  pest or weed control at 140 g/ha: 60 to 74%
[1]; [6]
  pest or weed control at 35 g/ha: 0 to 29%
  pest or weed control at 70 g/ha: 0 to 29%
  pest or weed control at 140 g/ha: 0 to 29%
[1]; [7]
  pest or weed control at 35 g/ha: 0 to 29%
  pest or weed control at 70 g/ha: 30 to 44%
  pest or weed control at 140 g/ha: 30 to 44%
[1]; [8]
  pest or weed control at 35 g/ha: 0 to 29%
  pest or weed control at 70 g/ha: 0 to 29%
  pest or weed control at 140 g/ha: 0 to 29%
[2]; [9]
  pest or weed control at 35 g/ha: 0 to 29%
  pest or weed control at 70 g/ha: 30 to 44%
  pest or weed control at 140 g/ha: 85 to 94%
[2]; [10]
  pest or weed control at 35 g/ha: 0 to 29%
  pest or weed control at 70 g/ha: 0 to 29%
  pest or weed control at 140 g/ha: 0 to 29%
[2]; [11]
  pest or weed control at 35 g/ha: 0 to 29%
  pest or weed control at 70 g/ha: 0 to 29%
  pest or weed control at 140 g/ha: 0 to 29%
[2]; [12]
  pest or weed control at 35 g/ha: 85 to 94%
  pest or weed control at 70 g/ha: 85 to 94%
  pest or weed control at 140 g/ha: 95 to 100%
[2]; [13]
  pest or weed control at 35 g/ha: 0 to 29%
  pest or weed control at 70 g/ha: 0 to 29%
  pest or weed control at 140 g/ha: 30 to 44%
[2]; [14]
  pest or weed control at 35 g/ha: 0 to 29%
  pest or weed control at 70 g/ha: 0 to 29%
  pest or weed control at 140 g/ha: 0 to 29%

Reference: patent US9149038B2, “4-amino-6-(heterocyclic)picolinates and 6-amino-2-(heterocyclic)pyrimidine-4-carboxylates and their use as herbicides” (Dow AgroSciences LLC, priority 2013, dated 2015)
